In patent publication US7282507B2, “Indole derivatives as selective androgen receptor modulators (SARMS)” (Janssen Pharmaceutica N.V., priority 2004, dated 2007):
“And” between values parts separate entries of the source, which are not always exact repeats. Equal values may be shown once. Read-outs that look alike come from different tables or passages of the source.

Columns and labels:
[1] = molecular target: T1, androgen receptor (AdEasy+rAR, COS-7 cells) (Rattus norvegicus, UniProt P15207); assay: COS-7 Whole-Cell Androgen Receptor Binding Assay, Adenovirus Transduction; conditions: for inhibition at 3 µM / % Inhibition, COS Binding: concentration of 3000 nM; for % Inhibition, COS Binding: 3 µM
T1 construct: expressed in transfected cells; host or cells: COS-7 cells transduced with adenovirus AdEasy+rAR
T1 sequence (P15207 1-902): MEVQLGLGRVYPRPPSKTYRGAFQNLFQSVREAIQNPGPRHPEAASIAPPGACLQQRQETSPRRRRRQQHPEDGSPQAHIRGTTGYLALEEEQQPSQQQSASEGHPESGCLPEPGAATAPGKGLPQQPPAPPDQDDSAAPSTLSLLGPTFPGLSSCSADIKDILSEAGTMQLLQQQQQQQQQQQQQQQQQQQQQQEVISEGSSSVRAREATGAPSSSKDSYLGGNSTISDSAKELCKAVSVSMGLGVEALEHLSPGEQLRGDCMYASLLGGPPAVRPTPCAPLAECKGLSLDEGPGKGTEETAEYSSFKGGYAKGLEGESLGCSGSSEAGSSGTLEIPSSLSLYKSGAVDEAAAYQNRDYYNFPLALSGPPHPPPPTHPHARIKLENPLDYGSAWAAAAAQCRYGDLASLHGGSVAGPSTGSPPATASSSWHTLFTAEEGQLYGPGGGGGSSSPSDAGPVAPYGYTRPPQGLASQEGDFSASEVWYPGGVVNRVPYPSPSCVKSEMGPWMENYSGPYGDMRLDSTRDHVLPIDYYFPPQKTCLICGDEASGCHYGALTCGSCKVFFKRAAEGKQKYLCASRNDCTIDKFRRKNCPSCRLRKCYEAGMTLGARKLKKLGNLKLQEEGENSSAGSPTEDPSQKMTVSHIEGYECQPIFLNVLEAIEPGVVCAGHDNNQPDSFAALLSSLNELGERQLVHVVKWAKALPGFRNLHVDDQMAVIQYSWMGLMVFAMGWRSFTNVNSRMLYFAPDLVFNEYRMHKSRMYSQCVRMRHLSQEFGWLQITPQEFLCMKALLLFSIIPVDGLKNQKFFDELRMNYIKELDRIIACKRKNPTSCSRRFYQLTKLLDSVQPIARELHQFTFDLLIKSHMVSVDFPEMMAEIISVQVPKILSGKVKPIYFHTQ
Experimental: COS-7 cells were plated in 96-well plates at 20,000 cells per well, in a solution of DMEM/F12 (GIBCO) containing 10% (v/v) charcoal-treated fetal bovine serum (Hyclone) and lacking phenol red. The cells were then incubated overnight at 37° C. in 5% (v/v) humidified CO2.
Test compound solutions were prepared by diluting the test compound in 100% (v/v) DMSO, if necessary.
Next, 1 mL of DMEM/F12 lacking phenol red was pipetted into each of the wells of a 2-mL 96-well assay block. […] The wells were carefully mixed by pipette.
In a 15 mL or 50 mL sterile centrifuge tube, a dilution in DMEM/F12 of the adenovirus AdEasy+rAR at a moi of 1:50 per well was prepared.
The medium was removed from the 96-well plates by inversion and the plates dried very briefly, inverted, on a sterile towel. As soon as possible after medium removal, 40 μL of the diluted test compound was added to each well, in duplicate. […] The plates were then incubated for 48 hours at 37° C. in 5% (v/v) humidified CO2.
The medium was removed from the above incubated plates by inversion and dried. Each well was then washed with 0.35 mL of 1× PBS. The PBS was then removed from the plates by inversion and the plates dried.
To each well was then added 50 μL of 0.5% (v/v) Triton X-100 (Sigma) in 1× PBS and the plates placed on a rotary shaker for 5 min. The contents of each well were then transferred to an OptiPlate-96 (Packard) scintillation plate. To each well was then added 0.2 mL of Microscint-20 (Packard) and the wells counted on a TopCount (Packard).
Percent inhibition was determined by testing dilutions of the test compound (usually duplicates of 10 μM) in the binding assay. Counts per well were measured and percents of inhibition determined. […] Counts per well were measured and IC50s determined by linear regression.

[2] = molecular target: T2, androgen receptor (AdEasy+rAR, L929 cells) (Rattus norvegicus, UniProt P15207); assay: L929 Androgen Receptor Functional Assay, Adenovirus Transduction; format: cell-based; conditions: for IC50: antagonist testing with R1881; for % Inhibition, L929 androgen receptor functional assay: antagonist testing with R1881, 3000 nM; for inhibition at 3 µM: L929, antagonist testing with R1881, 3000 nM
T2 construct: expressed in transfected cells; host or cells: L929 cells transduced with adenovirus AdEasy+rAR
T2 sequence (P15207 1-902): T1 sequence (P15207 1-902)
In short: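 Luminescent reporter readout after 48 h at 37 °C: rat AR delivered by adenovirus (AdEasy+rAR, moi 1:500) into L929 cells grown without phenol red in charcoal-treated serum. Antagonist wells also received R1881 (2.5× dilution at 2.5 nM).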

[3] = test system: testosterone-enhanced ventral prostate and seminal vesicle weights; assay: Ventral Prostate and Seminal Vesicle Weight in vivo Assay; set-up: species or system rat; conditions: immature castrated male Sprague Dawley rats, once daily for five days, usually orally 40 mg/kg, with testosterone propionate 2 mg/kg s.c. Further: key: 'active' if the non weight adjusted prostate weight was ≦40 mg or the % Inhibition prostate weight, body weight adjusted was ≧40% @ 2 mg/day dosage; ID50's, if determined, of ≦15 mg/day also indicated an 'active' compound; listed herein as 'inactive' as they did not meet the specified criteria defined above.
In short: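 Wet weights of ventral prostate and seminal vesicles were taken on day six. Castrated immature male Sprague Dawley rats had received five daily doses of testosterone propionate (2 mg/kg s.c.) together with test compound, typically 40 mg/kg orally. Activity was scored from absolute prostate weight or body-weight-adjusted % inhibition.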

[4] = read-out: IC50 (nM), COS Binding

Structure (SMILES) | inhibition at 3 µM [1] [%] | IC50 [1, 4] [nM] | % Activity, L929 androgen receptor functional assay ([2]; agonist testing, 3000 nM, 3 µM) [%] | IC50 [2] [nM] | active / inactive: inhibition of testosterone-enhanced prostate weight [3] | % Inhibition, COS Binding [1] | % Inhibition, L929 androgen receptor functional assay ([2]; 3 µM) [%] | % Activity, L929 androgen receptor functional assay ([2]; agonist testing, 3000 nM) [%] | % Activity, L929 androgen receptor functional assay ([2]; agonist testing, @ 8000 nM) | IC50 ([1]; IC50 (nM), COS Binding) [nM] | inhibition at 3 µM [2] [%] | EC50 ([2]; agonist testing) [nM]
CCS(=O)(=O)CC(C)(O)c1[nH]c2cc(C(F)(F)F)c(C#N)cc2c1C (single isomer, unassigned) [Compound 251, 2-(2-Ethanesulfonyl-1-hydroxy-1-methyl-ethyl)-3-methyl-6-trifluoromethyl-1H-indole-5-carbonitrile] | 85 | 220 | −1 | 200 | active | – | – | – | – | – | – | –
CCS(=O)(=O)CC(C)(O)c1[nH]c2cc(C(F)(F)F)c(C#N)cc2c1C (single isomer, unassigned) [Compound 252] | – | > 3000 | 1 | 3100 | active | 68% | 65 | – | – | – | – | –
CC(O)(CSc1ccccc1N)c1cc2cc(Cl)c(C(F)(F)F)cc2[nH]1 (stereo not shown) [Compound 123] | – | > 3000 | – | – | inactive | – | – | −4 | 1 @ 8000 nM % | – | – | –
CN(C)c1ccc(SCC(C)(O)c2cc3cc(Cl)c(C(F)(F)F)cc3[nH]2)cc1 (stereo not shown) [Compound 124] | – | > 3000 | – | – | inactive | – | – | −4 | – | – | – | –
CN(C)c1ccccc1SCC(C)(O)c1cc2cc(Cl)c(C(F)(F)F)cc2[nH]1 (stereo not shown) [Compound 127] | – | > 1200 | – | – | inactive | 41% and 74% | – | −5 | – | – | – | –
CC(O)(CSc1ccc(C(=O)O)cc1)c1cc2cc(Cl)c(C(F)(F)F)cc2[nH]1 (stereo not shown) [Compound 133] | 65 | – | – | – | inactive | – | – | −4 | – | > 1500 | 19 | –
CC(O)(CS(C)(=O)=O)c1cc2cc(Cl)c(C(F)(F)F)cc2n1S(C)(=O)=O (stereo not shown) [Compound 137] | 73 | – | – | – | inactive | – | – | 0 | – | > 1500 | 77 | –
CCSCC(C)(O)c1cc2cc(F)c(C(F)(F)F)cc2[nH]1 (stereo not shown) [Compound 159] | – | 240 | – | – | active | – | – | 2 | – | – | – | –
CCCS(=O)(=O)CC(C)(O)c1cc2cc([N+](=O)[O-])c(C(F)(F)F)cc2[nH]1 (stereo not shown) [Compound 177] | 90 | 88 | – | – | active | – | – | 2 | – | – | 89 | –
CCC(O)(CSCC(F)(F)F)c1cc2cc([N+](=O)[O-])c(C(F)(F)F)cc2[nH]1 (stereo not shown) [Compound 185] | 92 | 61 | – | – | active | – | – | 2 | – | – | 97 | –
CC(O)(CSCC(F)(F)F)c1cc2cc(F)c(C(F)(F)F)cc2[nH]1 (stereo not shown) [Compound 189] | 100 | 280 | – | – | inactive | – | – | 3 | – | – | 85 | –
CC(O)(CSCC(F)(F)F)c1cc2cc(Cl)c(C(F)(F)F)cc2[nH]1 (stereo not shown) [Compound 190] | 100 | 292 | – | – | active | – | – | 1 | – | – | 97 | –
CCC(O)(CS(=O)(=O)CC(F)(F)F)c1cc2cc([N+](=O)[O-])c(C(F)(F)F)cc2[nH]1 (stereo not shown) [Compound 191] | 65 | 840 | – | – | active | – | – | 2 | – | – | -6 | –
CCC(O)(CSCC(F)(F)F)c1cc2cc(Cl)c(C(F)(F)F)cc2[nH]1 (stereo not shown) [Compound 192] | 86 | 82 | – | – | active | – | – | 8 | – | – | 89 | –
CCC(O)(CSCC(F)(F)F)c1cc2cc(F)c(C(F)(F)F)cc2[nH]1 (stereo not shown) [Compound 194] | 80 | 320 | – | – | inactive | – | – | 2 | – | – | 40 | –
CC(O)(CSCc1cccs1)c1cc2cc([N+](=O)[O-])c(C(F)(F)F)cc2[nH]1 (stereo not shown) [Compound 197] | 86 | > 3000 | – | – | inactive | – | – | 2 | – | – | -26 | –
CCC(O)(CS(=O)(=O)CC(F)(F)F)c1[nH]c2cc(C(F)(F)F)c([N+](=O)[O-])cc2c1Cl (stereo not shown) [Compound 199] | 82 | 310 | – | – | inactive | – | – | 2 | – | – | 59 | –
CCCCSCC(C)(O)c1cc2cc([N+](=O)[O-])c(C(F)(F)F)cc2[nH]1 (stereo not shown) [Compound 200] | 97 | – | – | – | inactive | – | – | 1 | – | – | 96 | –
CC(O)(CSCC(F)(F)F)c1cc2cc([N+](=O)[O-])c(C(F)(F)F)cc2[nH]1 (stereo not shown) [Compound 201] | – | 340 | 2 | – | inactive | 86% | 83 | – | – | – | – | –
CCSCC(C)(O)c1cc2cc(C#N)c(C(F)(F)F)cc2[nH]1 (stereo not shown) [Compound 209] | 61 | 1840 | – | 372 | active | – | – | – | −3 @ 8000 nM % | – | – | > 8000
CCSCC(C)(O)c1cc2cc([N+](=O)[O-])cc(C(F)(F)F)c2[nH]1 (stereo not shown) [Compound 212] | 86 | 98 | – | – | active | – | – | −3 | – | – | 101 | –
